We go through 13 compounds from ChEMBL document CHEMBL5154681, “Small Amphiphilic Peptides: Activity Against a Broad Range of Drug-Resistant Bacteria and Structural Insight into Membranolytic Properties” (J Med Chem, 2022).

A short description of data set [1]: Hemolytic activity in human RBC assessed as hemolysis incubated for 2 hrs by spectrophotometer analysis. The class given is toxicity, cell-based, Erythrocyte. Particulars: human red blood cells (erythrocytes).
The subject of data set [2] is Staphylococcus aureus. Description: Antibacterial activity against methicillin resistant Staphylococcus aureus ATCC BAA-1556 incubated for 24 hrs by microtiter plate method. The class given is functional.
A further data set concerns Escherichia coli. Kind of data set: Antibacterial activity against Escherichia coli ATCC 25922 incubated for 24 hrs by microtiter plate method. The class given is functional. The following applies: Escherichia coli, ATCC 25922, 24 h, read-out: MIC.
In a further data set the test system is Pseudomonas aeruginosa. Description: Antibacterial activity against Pseudomonas aeruginosa ATCC 27883 incubated for 24 hrs by microtiter plate method. Particulars: Pseudomonas aeruginosa, ATCC 27883, 24 h, read-out: MIC. The class given is functional.
For data set [3], the system named is Staphylococcus aureus. Description: Antibacterial activity against Staphylococcus aureus ATCC 29213 incubated for 24 hrs by microtiter plate method. The class given is functional. Particulars: Staphylococcus aureus, ATCC 29213, read-out: MIC.
For data set [4], the system named is Enterococcus faecalis. Kind of data set: Antibacterial activity against Enterococcus faecalis ATCC 29212 incubated for 24 hrs by microtiter plate method. The class given is functional.
Data set [5] deals with Enterococcus faecium. Description: Antibacterial activity against vancomycin-resistant Enterococcus faecium ATCC 700221 incubated for 24 hrs by microtiter plate method. The class given is functional.
For another data set, the system named is Bacillus subtilis. Description: Antibacterial activity against Bacillus subtilis ATCC 6633 incubated for 24 hrs by microtiter plate method. The class given is functional.
Data set [6] deals with Streptococcus pneumoniae. Kind of data set: Antibacterial activity against multidrug resistant […] ATCC 700677 incubated for 24 hrs by microtiter plate method. The class given is functional.
The test system of data set [7] is Enterococcus faecium. Description: Antibacterial activity against Enterococcus faecium ATCC 27270 incubated for 24 hrs by microtiter plate method. The class given is functional.
For a further data set, the system named is Bacillus cereus. Kind of data set: Antibacterial activity against Bacillus cereus ATCC 13061 incubated for 24 hrs by microtiter plate method. The class given is functional.
For data set [8], the system named is Enterococcus faecalis. Kind of data set: Antibacterial activity against vancomycin-resistant Enterococcus faecalis ATCC 51575 incubated for 24 hrs by microtiter plate method. The class given is functional.
In data set [9] the test system is Streptococcus pneumoniae. Description: Antibacterial activity against […] ATCC 49619 incubated for 24 hrs by microtiter plate method. The class given is functional.
The mark [10] stands for this setting: Staphylococcus aureus, ATCC BAA-1556, 24 h, read-out: MIC.

As usually defined, the HC50 is the concentration that lyses half of the red blood cells. In general, MIC refers to the lowest concentration found to suppress growth.

Values after ≈ are worked out from the molar mass of the structure shown. Square brackets hold non-standard residues; d marks the D form. Peptide text beside a SMILES is read from it. Dip = N[C@H](C(=O)O)C(c1ccccc1)c1ccccc1; 2Nal = N[C@@H](Cc1ccc2ccccc2c1)C(=O)O

As to `N=C(N)NCCC[C@H](NC(=O)[C@@H](NC(=O)[C@@H](NC(=O)[C@H](CCCNC(=N)N)NC(=O)[C@H](CCCNC(=N)N)NC(=O)[C@@H](NC(=O)[C@@H](N)CCCNC(=N)N)C(c1ccccc1)c1ccccc1)C(c1ccccc1)c1ccccc1)C(c1ccccc1)c1ccccc1)C(=O)O` (H-R[Dip]RR[Dip][Dip]R-OH), the HC50 at 2 h in data set [1] came out at 220 µg/mL. Further, the minimal inhibitory concentration (MIC) worked out at 25 µg/mL (≈ 19 µM) with Staphylococcus aureus [2] (setting [10]), 25 µg/mL (≈ 19 µM) in the data set on Escherichia coli, 100 µg/mL (≈ 76.2 µM) with Pseudomonas aeruginosa and 12.5 µg/mL (≈ 9.52 µM) in the data set on Staphylococcus aureus [3].
As for `N=C(N)NCCC[C@@H]1NC(=O)[C@H](CCCNC(=N)N)NC(=O)[C@H](CCCNC(=N)N)NC(=O)[C@H](Cc2ccc3ccccc3c2)NC(=O)[C@H](Cc2ccc3ccccc3c2)NC(=O)[C@H](CCCNC(=N)N)NC1=O` (cyclo([2Nal][2Nal]RRRR)), the HC50 at 2 h in data set [1] was found to be 125 µg/mL. The MIC amounted to 6.2 µg/mL (≈ 6.08 µM) in the data set with Staphylococcus aureus [2] (setting [10]), 50 µg/mL (≈ 49.1 µM) in the data set on Escherichia coli, 50 µg/mL (≈ 49.1 µM) in the data set on Pseudomonas aeruginosa and 6.2 µg/mL (≈ 6.08 µM) in the data set on Staphylococcus aureus [3].
Take `N=C(N)NCCC[C@@H]1NC(=O)[C@H](CCCNC(=N)N)NC(=O)[C@H](Cc2ccc3ccccc3c2)NC(=O)[C@H](Cc2ccc3ccccc3c2)NC(=O)[C@H](Cc2ccc3ccccc3c2)NC(=O)[C@H](CCCNC(=N)N)NC1=O` (cyclo([2Nal][2Nal][2Nal]RRR)): the concentration for 50% haemolysis (HC50) at 2 h in data set [1] came out at 50 µg/mL. Besides, the MIC is 6.2 µg/mL (≈ 5.85 µM) with Staphylococcus aureus [2] (setting [10]), 25 µg/mL (≈ 23.6 µM) in the data set on Escherichia coli, 50 µg/mL (≈ 47.2 µM) in the data set on Pseudomonas aeruginosa and 3.1 µg/mL (≈ 2.92 µM) with Staphylococcus aureus [3].
With `N=C(N)NCCC[C@@H]1NC(=O)[C@H](CCCNC(=N)N)NC(=O)[C@H](CCCNC(=N)N)NC(=O)[C@H](Cc2ccc3ccccc3c2)NC(=O)[C@H](Cc2ccc3ccccc3c2)NC(=O)[C@H](Cc2ccc3ccccc3c2)NC(=O)[C@H](CCCNC(=N)N)NC(=O)[C@H](CCCNC(=N)N)NC1=O` (cyclo([2Nal][2Nal][2Nal]RRRRR)), in data set [1], the HC50 at 2 h was 90 µg/mL. The MIC turned out to be 6.2 µg/mL (≈ 4.52 µM) with Staphylococcus aureus [2] (setting [10]), 50 µg/mL (≈ 36.4 µM) in the data set with Escherichia coli, 25 µg/mL (≈ 18.2 µM) in the data set on Pseudomonas aeruginosa and 3.1 µg/mL (≈ 2.26 µM) with Staphylococcus aureus [3].
The corresponding values for `N=C(N)NCCC[C@@H]1NC(=O)[C@H](CCCNC(=N)N)NC(=O)[C@H](CCCNC(=N)N)NC(=O)[C@H](Cc2ccc3ccccc3c2)NC(=O)[C@H](Cc2ccc3ccccc3c2)NC(=O)[C@H](Cc2ccc3ccccc3c2)NC(=O)[C@H](Cc2ccc3ccccc3c2)NC(=O)[C@H](CCCNC(=N)N)NC1=O` (cyclo([2Nal][2Nal][2Nal][2Nal]RRRR)) are 30 µg/mL, 6.2 µg/mL (≈ 4.39 µM), 25 µg/mL (≈ 17.7 µM), 50 µg/mL (≈ 35.4 µM) and 3.1 µg/mL (≈ 2.19 µM).
`N=C(N)NCCC[C@@H]1NC(=O)[C@H](CCCNC(=N)N)NC(=O)[C@H](CCCNC(=N)N)NC(=O)[C@H](C(c2ccccc2)c2ccccc2)NC(=O)[C@H](C(c2ccccc2)c2ccccc2)NC(=O)[C@H](CCCNC(=N)N)NC1=O` (cyclo([Dip][Dip]RRRR)): the HC50 at 2 h in data set [1] is 110 µg/mL. Moreover, the MIC with Staphylococcus aureus [2] (setting [10]) was found to be 6.2 µg/mL (≈ 5.79 µM); in the data set with Escherichia coli, 50 µg/mL (≈ 46.7 µM); with Pseudomonas aeruginosa, 25 µg/mL (≈ 23.3 µM); in the data set on Staphylococcus aureus [3], 6.2 µg/mL (≈ 5.79 µM).
With `NCCCC[C@@H]1NC(=O)[C@H](CCCCN)NC(=O)[C@H](CCCCN)NC(=O)[C@H](C(c2ccccc2)c2ccccc2)NC(=O)[C@H](C(c2ccccc2)c2ccccc2)NC(=O)[C@H](C(c2ccccc2)c2ccccc2)NC(=O)[C@H](CCCCN)NC1=O` (cyclo([Dip][Dip][Dip]KKKK)), the HC50 at 2 h in data set [1] was 165 µg/mL. Further, the MIC in the data set with Staphylococcus aureus [2] (setting [10]) is 12.5 µg/mL (≈ 10.6 µM); in the data set on Escherichia coli it was more than 100 µg/mL; in the data set on Pseudomonas aeruginosa it was more than 100 µg/mL; in the data set on Staphylococcus aureus [3] it was 12.5 µg/mL (≈ 10.6 µM).
Turning to `NCCCC[C@@H]1NC(=O)[C@H](CCCCN)NC(=O)[C@H](CCCCN)NC(=O)[C@H](C(c2ccccc2)c2ccccc2)NC(=O)[C@H](C(c2ccccc2)c2ccccc2)NC(=O)[C@H](C(c2ccccc2)c2ccccc2)NC(=O)[C@H](CCCCN)NC(=O)[C@H](CCCCN)NC1=O` (cyclo([Dip][Dip][Dip]KKKKK)), in [1], the HC50 at 2 h turned out to be 180 µg/mL. For the same compound, the MIC is 12.5 µg/mL (≈ 9.54 µM) with Staphylococcus aureus [2] (setting [10]), 50 µg/mL (≈ 38.1 µM) in the data set with Escherichia coli, more than 100 µg/mL with Pseudomonas aeruginosa and 6.2 µg/mL (≈ 4.73 µM) in the data set with Staphylococcus aureus [3].
The corresponding values for `N=C(N)NCCC[C@@H]1NC(=O)[C@H](CCCNC(=N)N)NC(=O)[C@H](CCCNC(=N)N)NC(=O)[C@H](C(c2ccccc2)c2ccccc2)NC(=O)[C@H](C(c2ccccc2)c2ccccc2)NC(=O)[C@H](C(c2ccccc2)c2ccccc2)NC(=O)[C@H](CCCNC(=N)N)NC(=O)[C@H](CCCNC(=N)N)NC1=O` (cyclo([Dip][Dip][Dip]RRRRR)) are 100 µg/mL, 6.2 µg/mL (≈ 4.27 µM), 25 µg/mL (≈ 17.2 µM), 25 µg/mL (≈ 17.2 µM) and 6.2 µg/mL (≈ 4.27 µM).
Regarding `N=C(N)NCCC[C@@H]1NC(=O)[C@H](CCCNC(=N)N)NC(=O)[C@H](CCCNC(=N)N)NC(=O)[C@H](C(c2ccccc2)c2ccccc2)NC(=O)[C@H](C(c2ccccc2)c2ccccc2)NC(=O)[C@H](C(c2ccccc2)c2ccccc2)NC(=O)[C@H](C(c2ccccc2)c2ccccc2)NC(=O)[C@H](CCCNC(=N)N)NC1=O` (cyclo([Dip][Dip][Dip][Dip]RRRR)), the HC50 at 2 h in data set [1] was 40 µg/mL. In addition, the MIC in the data set on Staphylococcus aureus [2] (setting [10]) stood at 6.2 µg/mL (≈ 4.08 µM); in the data set on Escherichia coli it was 25 µg/mL (≈ 16.5 µM); in the data set on Pseudomonas aeruginosa, 25 µg/mL (≈ 16.5 µM); in the data set on Staphylococcus aureus [3], 3.1 µg/mL (≈ 2.04 µM).
As for `N=C(N)NCCC[C@@H]1NC(=O)[C@H](CCCNC(=N)N)NC(=O)[C@H](C(c2ccccc2)c2ccccc2)NC(=O)[C@H](C(c2ccccc2)c2ccccc2)NC(=O)[C@H](CCCNC(=N)N)NC(=O)[C@H](CCCNC(=N)N)NC(=O)[C@H](C(c2ccccc2)c2ccccc2)NC1=O` (stereo in doubt; 16C), in data set [1], the concentration for 50% haemolysis (HC50) at 2 h came out at 130 µg/mL. Besides, the minimum inhibitory concentration (MIC) against Staphylococcus aureus [2] (24 h) was 6.2 µg/mL (≈ 4.79 µM); with Escherichia coli it was more than 100 µg/mL; with Pseudomonas aeruginosa it was 50 µg/mL (≈ 38.6 µM); in the data set on Staphylococcus aureus [3], 6.2 µg/mL (≈ 4.79 µM).
For the compound `N=C(N)NCCC[C@@H]1NC(=O)[C@H](CCCNC(=N)N)NC(=O)[C@H](Cc2ccc3ccccc3c2)NC(=O)[C@H](Cc2ccc3ccccc3c2)NC(=O)[C@H](CCCNC(=N)N)NC(=O)[C@H](CCCNC(=N)N)NC(=O)[C@H](Cc2ccc3ccccc3c2)NC1=O` (stereo in doubt; 18C), in data set [1], the HC50 at 2 h was determined as 105 µg/mL. The MIC in the data set on Staphylococcus aureus [2] (setting [10]) is 6.2 µg/mL (≈ 5.1 µM); in the data set with Escherichia coli it was 25 µg/mL (≈ 20.6 µM); in the data set with Pseudomonas aeruginosa it was more than 100 µg/mL; in the data set with Staphylococcus aureus [3] it was 6.2 µg/mL (≈ 5.1 µM).
Turning to `CN[C@H](CC(C)C)C(=O)N[C@H]1C(=O)N[C@@H](CC(N)=O)C(=O)N[C@H]2C(=O)N[C@H]3C(=O)N[C@H](C(=O)N[C@H](C(=O)O)c4cc(O)cc(O)c4-c4cc3ccc4O)[C@H](O)c3ccc(c(Cl)c3)Oc3cc2cc(c3O[C@@H]2O[C@H](CO)[C@@H](O)[C@H](O)[C@H]2O[C@H]2C[C@](C)(N)[C@H](O)[C@H](C)O2)Oc2ccc(cc2Cl)[C@H]1O` [VANCOMYCIN], the minimum inhibitory concentration (MIC) with Enterococcus faecalis [4] was 0.7 µg/mL (≈ 0.483 µM); against Enterococcus faecium [5], more than 50 µg/mL; with Bacillus subtilis, 0.7 µg/mL (≈ 0.483 µM); against Streptococcus pneumoniae [6], 1.5 µg/mL (≈ 1.04 µM); against Enterococcus faecium [7], 1.5 µg/mL (≈ 1.04 µM); in the data set with Bacillus cereus it was 0.7 µg/mL (≈ 0.483 µM). Further, the MIC is more than 50 µg/mL in the data set with Enterococcus faecalis [8] and 3.1 µg/mL (≈ 2.14 µM) with Streptococcus pneumoniae [9].
